Values of other authors, collected in patent US20200316037A1, “COMPOSITIONS AND METHODS FOR TREATING NEOPLASIA” (THE ANGIOGENESIS FOUNDATION, priority 2017, published 2020).
Read-outs that look alike come from different tables or passages of the source.

Tests used:
[1] = system: superficial Basal Cell Carcinoma (sBCC); conditions: two double-blind vehicle-controlled studies; 5x/week x 6 weeks
BCC = conditions: imiquimod open-label clinical study N=162
[2] = for Undesirable Local Reactions (combined itching, burning, bleeding, stinging, pain/soreness, tenderness, irritation): monotherapy; for Undesirable Local Reactions (combined stinging, burning, itching, or irritation/dermatitis/rash): monotherapy at normal concentration and standard dose frequency

CC(C)Cn1cnc2c(N)nc3ccccc3c21 [Imiquimod 5%, Imiquimod]
sBCC clearance [1]: 75%
Recurrence Rate of BCC (BCC; Month 0): 10%
Recurrence Rate of BCC (BCC; Month 3): 13%
Recurrence Rate of BCC (BCC; Month 6): 15%
Recurrence Rate of BCC (BCC; Month 12): 16%
Recurrence Rate of BCC (BCC; Month 24): 21%
Recurrence Rate of BCC (BCC; Post-treatment): 0%
Undesirable Local Reactions (combined itching, burning, bleeding, stinging, pain/soreness, tenderness, irritation) ([2]; 2x/week study): 39%
Undesirable Local Reactions (combined itching, burning, bleeding, stinging, pain/soreness, tenderness, irritation) ([2]; 3x/week study): 63%
Undesirable Local Reactions (combined itching, burning, bleeding, stinging, pain/soreness, tenderness, irritation) ([2]; 5x/week study): 28%
Incidence of inflammation ([2]; monotherapy per package label, imiquimod clinical studies): ≤ 97%

CC1=C(/C=C/C(C)=C/C=C/C(C)=C/C(=O)O)C(C)(C)CCC1 [Tretinoin 0.1%, Tretinoin]
Undesirable Local Reactions (combined stinging, burning, itching, or irritation/dermatitis/rash) [2]: 15%

CCCCC(=O)O[C@]1(C(=O)CO)CC[C@H]2[C@@H]3CCC4=CC(=O)CC[C@]4(C)[C@H]3[C@@H](O)C[C@@]21C [Hydrocortisone valerate 0.2%, Hydrocortisone valerate]
Undesirable Local Reactions (combined stinging, burning, itching, or irritation/dermatitis/rash) [2]: 7%

C=C1/C(=C\C=C2/CCC[C@]3(C)[C@@H]([C@H](C)/C=C/[C@@H](O)C4CC4)CC[C@@H]23)C[C@@H](O)C[C@@H]1O [Calcipotriene 0.005%, Calcipotriene]
Undesirable Local Reactions (combined stinging, burning, itching, or irritation/dermatitis/rash) [2]: 13-45%
